Our source for the IC50 values is US10053454B2 (Bristol-Myers Squibb Company, priority 2013, dated 2018).

This assay has as its target BRD4 (Homo sapiens, UniProt O60885). Briefly: Time Resolved Fluorescence Resonance Energy Transfer (TR-FRET) binding assay. The conditions noted are these: one of the FRET assays described (BRD4 construct not given). (TR-FRET usually uses a lanthanide donor and a delayed reading to cut background.)

SMILES strings stand for the structures.

Take `CCNC(=O)n1c2cc(C(=O)N3C[C@@H](C)O[C@@H](C)C3)ccc2c2cc(-c3c(C)noc3C)cc(C(N)=O)c21` [Example 61, 3-(3,5-dimethyl-4-isoxazolyl)-7-(cis-2,6-dimethylmorpholine-4-carbonyl)-N9-ethyl-9H-carbazole-1,9-dicarboxamide]: the IC50 (commonly the concentration that gives 50% inhibition) is less than 5000 nM.

Regarding `Cc1cnc(-c2cc(-c3c(C)noc3C)cc3c2[nH]c2cc(C(=O)N4CCOCC4)ccc23)o1` [Example 62, 3-(3,5-dimethyl-4-isoxazolyl)-1-(5-methyl-1,3-oxazol-2-yl)-7-(4-morpholinylcarbonyl)-9H-carbazole], the IC50 was less than 5000 nM.

The molecule `Cc1noc(C)c1-c1cc(C(N)=S)c2[nH]c3cc(C(=S)N4CCOCC4)ccc3c2c1` [Example 63, 3-(3,5-dimethyl-4-isoxazolyl)-7-(4-morpholinylcarbonothioyl)-9H-carbazole-1-carbothioamide] returned an IC50 of less than 500 nM.

`Cc1noc(C)c1-c1cc(C(N)=S)c2[nH]c3cc(C(=O)N4CCOCC4)ccc3c2c1` [Example 64, 3-(3,5-dimethyl-4-isoxazolyl)-7-(4-morpholinylcarbonyl)-9H-carbazole-1-carbothioamide] returned an IC50 of less than 5000 nM.

In turn, `Cc1csc(-c2cc(-c3c(C)noc3C)cc3c2[nH]c2cc(C(=O)N4CCOCC4)ccc23)n1` [Example 65] showed an IC50 of less than 5000 nM.

For the molecule `CCn1c2cc(C(=O)N3CCOCC3)ccc2c2cc(-c3c(C)noc3C)cc(C(N)=S)c21` [Example 67, 3-(3,5-dimethyl-4-isoxazolyl)-9-ethyl-7-(4-morpholinylcarbonyl)-9H-carbazole-1-carbothioamide], the IC50 was less than 500 nM.

As to `Cc1noc(C)c1-c1cc(C(N)=S)c2c(c1)c1ccc(C(=O)N3CCOCC3)cc1n2CC1CC1` [Example 68, 9-(cyclopropylmethyl)-3-(3,5-dimethyl-4-isoxazolyl)-7-(4-morpholinylcarbonyl)-9H-carbazole-1-carbothioamide], the IC50 is less than 5000 nM.

On to `Cc1noc(C)c1-c1cc(-c2nc[nH]n2)c2[nH]c3cc(C(=O)N4CCOCC4)ccc3c2c1` [Example 69, 3-(3,5-dimethyl-4-isoxazolyl)-7-(4-morpholinylcarbonyl)-1-(1H-1,2,4-triazol-3-yl)-9H-carbazole], for which the IC50 was less than 500 nM.

In turn, `Cc1noc(C)c1-c1cc(-c2nc[nH]n2)c2c(c1)c1ccc(C(=O)N3CCOCC3)cc1n2CC1CC1` [Example 70, 9-(cyclopropylmethyl)-3-(3,5-dimethyl-4-isoxazolyl)-7-(4-morpholinylcarbonyl)-1-(1H-1,2,4-triazol-3-yl)-9H-carbazole] registered an IC50 of less than 5000 nM.

The molecule `Cc1noc(C)c1-c1cc(C(N)=O)c2c(c1)c1ccc(N3CCCS3(=O)=O)cc1n2CC1CC1` [Example 71, 9-(cyclopropylmethyl)-3-(3,5-dimethyl-4-isoxazolyl)-7-(1,1-dioxido-2-isothiazolidinyl)-9H-carbazole-1-carboxamide] had an IC50 of less than 50 nM.

`COc1ccc2c(c1)c1cc(-c3c(C)noc3C)cc(C(N)=O)c1n2S(C)(=O)=O` [Example 72, 3-(3,5-dimethylisoxazol-4-yl)-6-methoxy-9-(methylsulfonyl)-9H-carbazole-1-carboxamide] yielded an IC50 of less than 500 nM.

`Cc1noc(C)c1-c1cc(C(N)=O)c2c(c1)c1c(C(=O)N3C[C@@H](C)O[C@@H](C)C3)cc(C(F)(F)F)cc1n2S(C)(=O)=O` [Example 73, 3-(3,5-dimethyl-4-isoxazolyl)-5-((cis-2,6-dimethyl-4-morpholinyl)carbonyl)-9-(methylsulfonyl)-7-(trifluoromethyl)-9H-carbazole-1-carboxamide] showed an IC50 of less than 500 nM.

Turning to `Cc1noc(C)c1-c1cc(C(N)=O)c2c(c1)c1c(C(=O)N3C[C@@H](C)O[C@@H](C)C3)cc(C(F)(F)F)cc1n2S(=O)(=O)C1CC1` [Example 74, 9-(cyclopropylsulfonyl)-3-(3,5-dimethyl-4-isoxazolyl)-5-((cis-2,6-dimethyl-4-morpholinyl)carbonyl)-7-(trifluoromethyl)-9H-carbazole-1-carboxamide], the IC50 was less than 500 nM.

Molecule `Cc1noc(C)c1-c1cc(C(N)=O)c2c(c1)c1c(C(=O)N3C[C@@H](C)O[C@@H](C)C3)cc(OC(F)(F)F)cc1n2S(=O)(=O)C1CC1` [Example 75, 9-(cyclopropylsulfonyl)-3-(3,5-dimethyl-4-isoxazolyl)-5-((cis-2,6-dimethyl-4-morpholinyl)carbonyl)-7-(trifluoromethoxy)-9H-carbazole-1-carboxamide] displayed an IC50 of less than 500 nM.

`Cc1noc(C)c1-c1cc(C(N)=O)c2c(c1)c1c(C(=O)N3C[C@@H](C)O[C@@H](C)C3)cc(OC(F)(F)F)cc1n2S(C)(=O)=O` [Example 76, 3-(3,5-dimethyl-4-isoxazolyl)-5-((cis-2,6-dimethyl-4-morpholinyl)carbonyl)-9-(methylsulfonyl)-7-(trifluoromethoxy)-9H-carbazole-1-carboxamide] displayed an IC50 of less than 50 nM.

`Cc1noc(C)c1-c1cc(C(N)=O)c2c(c1)c1cc(S(C)(=O)=O)ccc1n2S(=O)(=O)C1CC1` [Example 77, 9-(cyclopropylsulfonyl)-3-(3,5-dimethyl-4-isoxazolyl)-6-(methylsulfonyl)-9H-carbazole-1-carboxamide] came in with an IC50 of less than 500 nM.

`Cc1noc(C)c1-c1cc(C(N)=O)c2c(c1)c1cc(S(C)(=O)=O)ccc1n2CC1CC1` [Example 78, 9-(cyclopropylmethyl)-3-(3,5-dimethyl-4-isoxazolyl)-6-(methylsulfonyl)-9H-carbazole-1-carboxamide]: the IC50 is less than 50 nM.

Consider `Cc1noc(C)c1-c1cc(C(N)=O)c2c(c1)c1ccc(S(C)(=O)=O)cc1n2CC1CC1` [Example 80, 9-(cyclopropylmethyl)-3-(3,5-dimethylisoxazol-4-yl)-7-(methylsulfonyl)-9H-carbazole-1-carboxamide], for which the half-maximal inhibitory concentration (IC50) is less than 50 nM.

As to `Cc1noc(C)c1-c1cc(C(N)=O)c2c(c1)c1c(S(C)(=O)=O)cccc1n2CC1CC1` [Example 81, 9-(cyclopropylmethyl)-3-(3,5-dimethyl-4-isoxazolyl)-5-(methylsulfonyl)-9H-carbazole-1-carboxamide], the IC50 is less than 50 nM.

The molecule `Cc1n[nH]c(C)c1-c1cc(C(N)=O)c2c(c1)c1ccc(C(=O)N3C[C@@H](C)O[C@@H](C)C3)cc1n2CC1CC1` [Example 83, 9-(cyclopropylmethyl)-7-((cis-2,6-dimethyl-4-morpholinyl)carbonyl)-3-(3,5-dimethyl-1H-pyrazol-4-yl)-9H-carbazole-1-carboxamide] returned an IC50 of less than 500 nM.

With `Cc1nnn(C)c1-c1cc(C(N)=O)c2c(c1)c1ccc(C(=O)N3C[C@@H](C)O[C@@H](C)C3)cc1n2CC1CC1` [Example 84, 9-(cyclopropylmethyl)-7-((cis-2,6-dimethyl-4-morpholinyl)carbonyl)-3-(1,4-dimethyl-1H-1,2,3-triazol-5-yl)-9H-carbazole-1-carboxamide], the IC50 was less than 500 nM.

For `Cc1noc(C)c1-c1cc(-c2nnc[nH]2)c2c(c1)c1ccc(C(=O)N3C[C@@H](C)O[C@@H](C)C3)cc1n2CC1CC1` [Example 85, 9-(cyclopropylmethyl)-3-(3,5-dimethyl-4-isoxazolyl)-7-((cis-2,6-dimethyl-4-morpholinyl)carbonyl)-1-(1H-1,2,4-triazol-3-yl)-9H-carbazole], the IC50 is less than 500 nM.

Regarding `Cc1noc(C)c1-c1cc(C(N)=O)c2c(c1)c1cc(C(=O)N3CCOCC3)ccc1n2S(=O)(=O)C1CC1` [Example 87, 9-(cyclopropylsulfonyl)-3-(3,5-dimethyl-4-isoxazolyl)-6-(4-morpholinylcarbonyl)-9H-carbazole-1-carboxamide], the IC50 is less than 50 nM.

As for `Cc1noc(C)c1-c1cc(C(N)=O)c2c(c1)c1ccc(C(=O)N3C[C@@H](C)O[C@@H](C)C3)cc1n2S(=O)(=O)C1CC1` [Example 88, 9-(cyclopropylsulfonyl)-3-(3,5-dimethyl-4-isoxazolyl)-7-((cis-2,6-dimethyl-4-morpholinyl)carbonyl)-9H-carbazole-1-carboxamide], the IC50 is less than 50 nM.
